Data from patent publication US12428415B2, “Matriptase 2 inhibitors and uses thereof” (Disc Medicine, Inc., priority 2018, dated 2025).

biological target: T1, Human Recombinant Matriptase 2 (Homo sapiens, UniProt Q8IU80); assay: Matriptase 2 fluorescence based inhibition assay, Method B (50 mM TRIS pH 7.5, 150 mM NaCl, 0.01% gelatin); type: biochemical; settings: 1 uM compound; Assay Used = B (Method B); read-out: Mar-2 % inhibition at 1 uM
T1 construct: purchased Enzo Life Sciences (an in-house preparation was also used) ALX-201-752-1
T1 sequence (Q8IU80 1-811): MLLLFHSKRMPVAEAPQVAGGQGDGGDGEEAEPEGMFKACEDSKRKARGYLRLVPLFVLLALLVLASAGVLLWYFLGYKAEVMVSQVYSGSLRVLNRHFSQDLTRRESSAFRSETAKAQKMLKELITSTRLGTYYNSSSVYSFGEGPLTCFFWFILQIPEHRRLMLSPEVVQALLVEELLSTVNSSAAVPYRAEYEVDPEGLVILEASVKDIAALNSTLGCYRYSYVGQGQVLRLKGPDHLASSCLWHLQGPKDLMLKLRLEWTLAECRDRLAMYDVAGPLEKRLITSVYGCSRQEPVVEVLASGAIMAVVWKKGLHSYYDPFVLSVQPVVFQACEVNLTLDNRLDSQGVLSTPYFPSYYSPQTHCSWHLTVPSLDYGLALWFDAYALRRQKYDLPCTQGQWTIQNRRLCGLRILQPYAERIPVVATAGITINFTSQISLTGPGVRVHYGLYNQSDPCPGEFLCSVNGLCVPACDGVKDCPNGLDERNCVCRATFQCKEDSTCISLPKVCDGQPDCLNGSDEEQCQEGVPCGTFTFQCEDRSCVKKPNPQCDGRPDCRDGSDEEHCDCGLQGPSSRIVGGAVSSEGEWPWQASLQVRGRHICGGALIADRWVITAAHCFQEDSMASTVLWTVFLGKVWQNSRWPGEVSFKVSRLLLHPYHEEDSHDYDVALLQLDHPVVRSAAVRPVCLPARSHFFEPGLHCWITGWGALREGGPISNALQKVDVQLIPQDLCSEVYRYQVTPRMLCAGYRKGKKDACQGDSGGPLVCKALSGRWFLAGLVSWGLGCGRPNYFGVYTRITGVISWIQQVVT
Summary of the method: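 Fluorogenic substrate Boc-Gln-Ala-Arg-7-amido-4-methylcoumarin (100 μM) cleavage read at Ex 360/Em 480 nm 60 min after addition, following 30 min enzyme–compound preincubation at 25° C. Enzyme was 7 nM commercial or 15 nM in-house; DMSO 1%. IC50s fitted by non-linear sigmoidal regression.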

| Compound | inhibition at 1 µM [%] |
| --- | --- |
| N=C(N)c1ccc2cc(C(=O)O)n(Cc3cc(N4CCOCC4=O)cc4ccccc34)c2c1 [Compound I-692] | 0 to 25 |
| N/C(=N\O)c1ccc2c(c1)cc(C(=O)O)n2Cc1cccc2ccccc12 [Compound I-660] | 0 to 25 |
| N=C(N)c1ccc2cc(C(=O)N[C@H]3CC[C@H](N)CC3)n(Cc3cc(-c4ccc(Cl)s4)on3)c2c1 [Compound I-773] | 50 to 75 |
| N=C(N)c1ccc2cc(C(=O)Nc3cccc4c3OCCO4)n(Cc3cccc4ccccc34)c2c1 [Compound I-760] | 0 to 25 |
| Cc1c(C(=O)N[C@H]2CC[C@H](N)CC2)n(Cc2cccc3ccccc23)c2cc(C(=N)N)ccc12 [Compound I-633] | 75 to 100 |
| N=C(N)c1ccc2cc(C(=O)N[C@H]3CC[C@H](N)CC3)n(Cc3csc4ccccc34)c2c1 [Compound I-756] | 75 to 100 |
| CCOC(=O)NC(=N)c1ccc2cc(C(=O)O)n(Cc3cccc4ccccc34)c2c1 [Compound I-712] | 0 to 25 |
| N=C(N)c1ccc2cc(C(=O)N[C@H]3CC[C@H](N)CC3)n(Cc3ccc(C(=O)N4CCCC4)c4ccccc34)c2c1 [Compound I-790] | 25 to 50 |
| CO/N=C(\N)c1ccc2cc(C(=O)OC)n(Cc3cccc4ccccc34)c2c1 [Compound I-718, methyl (E)-6-(N′-methoxycarbamimidoyl)-1-(naphthalen-1-ylmethyl)-1H-indole-2-carboxylate] | 0 to 25 |
| N=C(N)c1ccc2cc(C(=O)N[C@H]3CC[C@H](N)CC3)n(Cc3cccc4c(OCc5ccccc5)cccc34)c2c1 [Compound I-769] | 75 to 100 |
| N=C(N)c1ccc2cc(C(=O)NCC3(CN)CCCCC3)n(Cc3cccc4ccccc34)c2c1 [Compound I-604] | 75 to 100 |
| CCCCCCOC(=O)NC(=N)c1ccc2cc(C(=O)O)n(Cc3cccc4ccccc34)c2c1 [Compound I-720, Potassium 6-(N-((hexyloxy)carbonyl)carbamimidoyl)-1-(naphthalen-1-ylmethyl)-1H-indole-2-carboxylate] | 0 to 25 |
| NC(=NO)c1ccc2cc(C(=O)O)n(Cc3cc(Oc4ccccc4)cc4ccccc34)c2c1 [Compound I-665] | 0 to 25 |
| N=C(N)c1ccc2cc(C(=O)N[C@H]3CC[C@H](N)CC3)n(-c3cc(CO)c4ccccc4c3)c2c1 [Compound I-681] | 75 to 100 |
| CCOC(=O)c1cc2ccc(C(=N)N)cc2n1Cc1cc(Oc2ncccn2)cc2ccccc12 [Compound I-598, Ethyl 6-carbamimidoyl-1-((3-(pyrimidin-2-yloxy)naphthalen-1-yl)methyl)-1H-indole-2-carboxylate] | 75 to 100 |
| N=C(N)c1ccc2cc(C(=O)N[C@H]3CC[C@H](N)CC3)n(Cc3cc(Oc4ccccc4)cc4ccccc34)c2c1 [Compound I-777] | 75 to 100 |

same assay, conditions: 1 uM compound; Assay Used = B; read-out: Mar-2 % inhibition at 1 uM

| Compound | inhibition at 1 µM [%] |
| --- | --- |
| CN1CC[C@@H](NC(=O)c2cc3ccc(C(=N)N)cc3n2Cc2cccc3ccccc23)C1 [Compound I-450] | 75 to 100 |
| CC(C)(C)OC(=O)N[C@H]1CC[C@H](NC(=O)c2cc3ccc(CN)cc3n2Cc2cccc3ccccc23)CC1 [Compound I-530, tert-butyl ((1r,4r)-4-(6-(aminomethyl)-1-(naphthalen-1-ylmethyl)-1H-indole-2-carboxamido)cyclohexyl) carbamate] | 0 to 25 |
| CCOC(=O)NC(=N)c1ccc2cc(C(=O)OCC)n(Cc3cc(Oc4ncccn4)cc4ccccc34)c2c1 [Compound I-559] | 25 to 50 |
| N=C(N)c1ccc2cc(C(=O)N3CC4CC3CN4)n(Cc3cccc4ccccc34)c2c1 (stereo not drawn) [Compound I-454] | 75 to 100 |
| CC(C)COC(=O)NC(=N)c1ccc2cc(C(=O)NC3CCN(C)CC3)n(Cc3cc(Oc4ncccn4)cc4ccccc34)c2c1 [Compound I-557] | 0 to 25 |
| N=C(N)c1ccc2cc(C(=O)NC34CC5C[C@H](C3)C[C@](O)(C5)C4)n(Cc3cccc4ccccc34)c2c1 (stereo in doubt) [Compound I-449] | 25 to 50 |
| COc1ccc2c(Cn3c(C(=O)N[C@H]4CC[C@H](N)CC4)cc4ccc(C(=N)N)cc43)cccc2c1 [Compound I-506] | 75 to 100 |
| N=C(N)c1ccc2cc(C(=O)N[C@H]3CC[C@H](C(=O)O)CC3)n(Cc3cccc4ccccc34)c2c1 [Compound I-473] | 25 to 50 |
| Cc1ccnc(Oc2cc(Cn3c(C(=O)O)cc4ccc(C(=N)N)cc43)c3ccccc3c2)n1 [Compound I-566] | 25 to 50 |
| CC(C)(C)OC(=O)NC(=N)c1ccc2cc(C(=O)N3CC[C@H](O)C3)n(Cc3cccc4ccccc34)c2c1 (stereo in doubt) [Compound I-424] | 0 to 25 |
| N=C(N)c1ccc2cc(C(=O)N3CCN(C(=O)CN)CC3)n(Cc3cccc4ccccc34)c2c1 [Compound I-431] | 50 to 75 |
| N=C(N)c1ccc2cc(-c3nnc([C@H]4CC[C@H](N)CC4)s3)n(Cc3cccc4ccccc34)c2c1 [Compound I-526, 2-(5-((1r,4r)-4-aminocyclohexyl)-1,3,4-thiadiazol-2-yl)-1-(naphthalen-1-ylmethyl)-1H-indole-6-carboximidamide] | 75 to 100 |
| N=C(N)c1ccc2cc(C(=O)NCC3(C(N)=O)CCCCC3)n(Cc3cccc4ccccc34)c2c1 [Compound I-464] | 50 to 75 |
| CC(C)(C)OC(=O)NCc1ccc2cc(C(=O)O)n(Cc3cccc4ccccc34)c2c1 [Compound I-539, 6-(((tert-butoxycarbonyl)amino)methyl)-1-(naphthalen-1-ylmethyl)-1H-indole-2-carboxylic Acid] | 0 to 25 |
| N=C(N)c1ccc2c(C(=O)O)c(C(=O)N[C@H]3CC[C@H](N)CC3)n(Cc3cccc4ccccc34)c2c1 [Compound I-512, 2-(((1r,4r)-4-aminocyclohexyl)carbamoyl)-6-carbamimidoyl-1-(naphthalen-1-ylmethyl)-1H-indole-3-carboxylic Acid] | 50 to 75 |
| N=C(N)c1ccc2cc(C(=O)N[C@H]3CC[C@H](N)CC3)n(-c3cccc4ccccc34)c2c1 [Compound I-415, N-((1r,4r)-4-aminocyclohexyl)-6-carbamimidoyl-1-(naphthalen-1-yl)-1H-indole-2-carboxamide] | 25 to 50 |
| N=C(N)c1ccc2cc(C(=O)NCCO)n(Cc3cc(Oc4ncccn4)cc4ccccc34)c2c1 [Compound I-582] | 75 to 100 |
| N=C(N)c1ccc2cc(C(=O)O)n(-c3cccc4ccccc34)c2c1 [Compound I-489] | 0 to 25 |
| N=C(N)c1ccc2cc(C(=O)NCC3CCNCC3)n(-c3ccc4ccccc4c3)c2c1 [Compound I-490, 6-carbamimidoyl-1-(naphthalen-2-yl)-N-(piperidin-4-ylmethyl)-1H-indole-2-carboxamide] | 50 to 75 |

same assay, conditions: 1 uM; Assay Used B; read-out: Mar-2 % inhibition at 1 uM

| Compound | inhibition at 1 µM [%] |
| --- | --- |
| N=C(N)c1ccc2cc(C(=O)N[C@H]3CC[C@H](N)CC3)n(S(=O)(=O)c3ccc4ccccc4c3)c2c1 [Compound I-37] | 0 to 25 |

same assay, conditions: compound at 1 uM; Assay Used: B; read-out: Mar-2 % inhibition at 1 uM

| Compound | inhibition at 1 µM [%] |
| --- | --- |
| N=C(N)c1ccc2cc(C(=O)O)n(Cc3cccc4cc(O)ccc34)c2c1 [Compound I-821] | 75 to 100 |
| C[C@@H](c1cccc2ccccc12)n1c(C(=O)N[C@H]2CC[C@H](N)CC2)cc2ccc(C(=N)N)cc21 [Compound I-805] | 0 to 25 |
| C[C@@H](c1cccc2ccccc12)n1c(C(=O)N[C@H]2CC[C@H](N)CC2)cc2ccc(/C(N)=N/O)cc21 [Compound I-802] | 0 to 25 |
